In patent publication US20090318456A1, “SUBSTITUTED PTERIDINES FOR THE TREATMENT AND PREVENTION OF VIRAL INFECTIONS” (Gilead Sciences, Inc., priority 2006, published 2009):
Where two headings read alike, the source gives them in different places.

Key:
[1] = CC50 assay (CellTiter-Glo) in Huh-7 HCV replicon cells; assay type: cell-based, human; conditions: human
Description: (§1) The anti HCV activity of specifically 2,4,6-trisubstituted pteridine derivatives was tested in a human hepatoma Huh-7 cell line harbouring a HCV replicon. The assay comprised the following steps:
(§2) Step 1: compound preparation and serial dilution involved the following alternatives, depending upon the water solubility of pteridine derivative being tested: • 1. with respect to water soluble 2,4,6-trisubstituted pteridine derivatives, 500 μL of solution in cell media (DMEM, 10% FBS, P/S, L-Glutamine) was prepared with a concentration that is twice the concentration of the starting final serial dilution concentration. 150 μL of the solution was added to the pre-specified wells in column 1 of a 96-well cell culture plate (PerkinElmer, white plate, cat. #6005181, for EC50 assay; black plate, cat. #6005182 for CC50 assay). The rest of the plate, i.e. columns 2-12, was filled with 100 μL of cell media. The plate was then placed on a Precision 2000 Workstation in order to start serial dilution. Pteridine compounds were diluted three times each step from column 1 to column 10. Column 11 was used as a blank control (no pteridine compound added). • 2. With respect to poorly water soluble pteridine derivatives, DMSO was used as a solvent, and serial dilution was performed in 50% DMSO in water, in a 384-well plate. A solution containing the relevant compound at 100-fold the concentration of the starting final serial dilution concentration was prepared in 50% DMSO in water and added to the pre-specified wells in column 1 of a polypropylene 384-well plate. This plate was then placed on a Precision 2000 Workstation in order to start serial dilution. After serial dilution, 2 μL of the solution was transferred from the 384-well plate to a 96-well cell culture plate containing 100 μL of cell media on a Biomek FX Workstation. The DMSO concentration in the final assay condition was 0.5% after cells have been added to the plate and the total volume in each well was brought to 200 μL. Step 2: to each well of the serial dilution plate prepared in step 1, 100 μL of cell media containing 6000 suspended Huh-7 HCV replicon cells was added with a Multidrop workstation. Plates were incubated for 3 days at 37° C. with 5% CO2. Step 3: detection: • 1) with respect to the EC50 assay, the media in a 96-well cell culture plate was aspirated with a Biotek EL405 plate-washer. A volume of 200 μL of a solution containing a 1:1 mixture of a cell-lysis buffer (commercially available from Promega, Luciferase Cell Culture Lysis 5× Reagent, cat. #E1531) and a luciferase substrate solution (commercially available from Promega, Luciferase Assay, cat. # E4550) was added to each well of the plate with Multidrop. The plate was incubated for 30 minutes at room temperature before the luminescence signal was measured with a TopCount plate-reader. • 2) with respect to the CC50 assay, 100 μL of a pre-mixed CellTiter-Glo (commercially available from Promega, cat. # G7572) solution was added directly to the cell culture in each well of the plate and the luminescence signal was measured with a TopCount plate-reader after 10 minutes of incubation at room temperature.
(§3) Results are expressed by the following data: • the 50% effective concentration (EC50), i.e. the concentration that protects 50% of the cell monolayer from virus-induced cythopathic effect, and • the 50% cytostatic concentration (CC50), i.e. the concentration that results in 50% inhibition of cell growth.

HCV replicon = assay: Anti-HCV replicon assay (EC50, luciferase); assay type: cell-based, Hepatitis C virus (HCV)
Description: as §1, §2, §3

Huh-7 HCV replicon cells = assay: CC50 assay (CellTiter-Glo) in Huh-7 HCV replicon cells; assay type: cell-based, human
Description: as §1, §2, §3

HIV IIIb strain = assay: Anti-HIV assay in MT-4 cells; assay type: cell-based; conditions: MT-4 cells infected with HIV IIIb, 5 days, CellTiter-Glo
Description: The anti HIV activity of some of the pteridine compounds listed in example C was tested in MT-4 cells infected with HIV IIIb strain. The assay comprised the following steps: • Step 1 (sample preparation). The compound stock solutions as prepared for Example C were diluted in MT4 cell media at a concentration equal to twice the concentration of the HCV EC50 or CC50 (the highest concentration of the two was chosen) obtained in Example C. To pre-defined wells of a 384-well black cell culture plate (NUNC), a volume of 50 μL of the compound solution is added. Serial dilution is performed by the workstation across the plate. Each compound is serially diluted 5-fold in each step, for a total of 6 steps (7 total concentrations). Compounds are tested in triplicates within each plate. Negative control was performed using 40 μL cell media only. At the end of the serial dilution, each well on the plate contained 40 μL of media containing different concentrations of compounds. A volume of 20 μL was transferred to a new plate to duplicate the plate. • step 2 (starting the assay): the plates are transferred into the HIV laboratory. To each plate, a volume of 20 μL MT-4 cell suspension (10^5 cells/mL) is dispensed into each well of the plate with the Multidrop dispenser. The HIV IIIb stock solution was diluted 1 to 500 in cell media (2 μL of virus+998 μL of media). 100-120 μL of diluted virus was then added to 10 ml cell suspension (containing 106 MT-4 cells). 20 μL of this cell suspension/virus was dispensed to each well of the plates with the Multidrop dispenser. The plates were incubated at 37° C. for 5 days in the cell culture incubator in the HIV laboratory. • step 3 (detection): on day 5, 40 μL of the pre-prepared CellTiter-Glo reagent was added to each well of the plates using the Multidrop dispenser. The plates were incubated at room temperature for 10 minutes to stabilize the luminescence signal. The luminescence was measured on the Victor 2 plate reader with an integration time of 0.25-1 seconds per sample. […] It is clear from the table that none of the pteridine compounds tested is active against HIV.

[2] = Table 1, Huh-7 HCV replicon cells, 3 days, luciferase, read-out: EC50
[3] = Table 2, Huh-7 HCV replicon cells, 3 days, luciferase, read-out: EC50
[4] = Table 3, Huh-7 HCV replicon cells, 3 days, luciferase, read-out: EC50
[5] = Hepatitis C virus, 72 h, Table 4, Huh-7 HCV replicon cells, 3 days, luciferase, read-out: EC50

In the case of CC(C)Oc1nc(N)nc2ncc(-c3ccc(F)cc3)nc12 [2-amino-4-isopropoxy-6-(4-fluorophenyl)-pteridine], the CC50 at 3 days ([1]; Table 6) is reported as > 20 µM and the EC50 (HCV replicon; Hepatitis C virus, 72 h, Table 6, Huh-7 HCV replicon cells, 3 days, luciferase, read-out: EC50) is reported as < 0.3 µM.

For COc1ccc(-c2cnc3nc(N)nc(N4CCN(C(=O)N(C)c5ccccc5)CC4)c3n2)cc1OC [Example 119], the CC50 (Huh-7 HCV replicon cells; Table 1, 3 days) was < 10 µM and the EC50 (HCV replicon; [2]) was < 0.3 µM.

For CCN(C(=O)N1CCN(c2nc(N)nc3ncc(-c4ccc(OC)c(OC)c4)nc23)CC1)c1ccccc1 [Example 121], the CC50 (Huh-7 HCV replicon cells; Table 1, 3 days) was < 10 µM and the EC50 (HCV replicon; [2]) was < 0.3 µM.

For COc1ccc(-c2cnc3nc(N)nc(N4CCN(C(=O)Nc5cccc(Cl)c5)CC4)c3n2)cc1OC [Example 122, 2-amino-4-(N-3-chloro-phenyl-carbamoyl-piperazin-1-yl)-6-(3,4-dimethoxyphenyl)pteridine], the CC50 (Huh-7 HCV replicon cells; Table 1, 3 days) was < 10 µM and the EC50 (HCV replicon; [2]) was < 0.3 µM.

For COc1ccc(-c2cnc3nc(N)nc(N4CCN(C(=O)Nc5cccc(C(F)(F)F)c5)CC4)c3n2)cc1OC [Example 123, 2-amino-4-(N-3-trifluoromethyl-phenyl-carbamoyl-piperazin-1-yl)-6-(3,4-dimethoxyphenyl)pteridine], the CC50 (Huh-7 HCV replicon cells; Table 1, 3 days) was < 10 µM and the EC50 (HCV replicon; [2]) was < 0.3 µM.

With COc1ccc(-c2cnc3nc(N)nc(N4CCN(C(=O)Nc5ccc(Br)cc5)CC4)c3n2)cc1OC [Example 124, 2-amino-4-(N-4-bromo-phenyl-carbamoyl-piperazin-1-yl)-6-(3,4-dimethoxyphenyl)pteridine] the CC50 (Huh-7 HCV replicon cells; Table 1, 3 days) was < 10 µM and the EC50 (HCV replicon; [2]) was < 0.3 µM.

For CCOc1nc(N)nc2ncc(-c3ccc(F)cc3)nc12 [Example 131, 2-amino-4-ethoxy-6-(4-fluorophenyl)-pteridine], the CC50 at 3 days ([1]; Table 2) was > 20 µM and the EC50 (HCV replicon; Hepatitis C virus, 72 h, Table 2, Huh-7 HCV replicon cells, 3 days, luciferase, read-out: EC50) was < 0.3 µM.

With CCOc1nc(N)nc2ncc(-c3ccc(OC)c(OC)c3)nc12 [Example 134] the CC50 (Huh-7 HCV replicon cells; Table 2, 3 days) was > 20 µM, the EC50 (HIV IIIb strain) was > 100 µM and the EC50 (HCV replicon; [3]) was < 0.3 µM.

With COc1ccc(-c2cnc3nc(N)nc(N4CCOCC4)c3n2)cc1OC [Example 158] the CC50 (Huh-7 HCV replicon cells; Table 2, 3 days) was 10 to 20 µM, the EC50 (HIV IIIb strain) was > 100 µM and the EC50 (HCV replicon; [3]) was < 0.3 µM.

For COc1ccc(-c2cnc3nc(N)nc(N4CCN(C)CC4)c3n2)cc1OC [Example 181], the CC50 (Huh-7 HCV replicon cells; Table 2, 3 days) was 10 to 20 µM, the EC50 (HIV IIIb strain) was > 100 µM and the EC50 (HCV replicon; [3]) was < 0.3 µM.

With CCS(=O)(=O)Nc1cccc(-c2cnc3nc(N)nc(N4CCOCC4)c3n2)c1 [Example 201] the CC50 (Huh-7 HCV replicon cells; Table 3, 3 days) was > 20 µM, the EC50 (HIV IIIb strain) was 17.8 µM and the EC50 (HCV replicon; [4]) was 0.3 to 1 µM.

In the case of CCC(=O)Nc1ccc(-c2cnc3nc(N)nc(N4CCOCC4)c3n2)cc1 [Example 216], the CC50 (Huh-7 HCV replicon cells; Table 3, 3 days) is reported as > 20 µM, the EC50 (HIV IIIb strain) is reported as > 100 µM and the EC50 (HCV replicon; [4]) is reported as 0.3 to 1 µM.

For CCC(C)Nc1nc(N)nc2ncc(-c3ccc(OC)c(OC)c3)nc12 (stereo not shown) [Example 230], the CC50 (Huh-7 HCV replicon cells; Table 3, 3 days) was > 20 µM and the EC50 (HCV replicon; [4]) was 0.3 to 1 µM.

In the case of Nc1ccc(-c2cnc3nc(N)nc(N4CCOCC4)c3n2)cc1 [Example 231], the CC50 (Huh-7 HCV replicon cells; Table 3, 3 days) is reported as > 20 µM and the EC50 (HCV replicon; [4]) is reported as 0.3 to 1 µM.

In the case of CCC(C)Nc1nc(N)nc2ncc(-c3ccc(OC)c(OC)c3)nc12 (stereo not shown) [Example 234], the CC50 (Huh-7 HCV replicon cells; Table 3, 3 days) is reported as > 20 µM and the EC50 (HCV replicon; [4]) is reported as 0.3 to 1 µM.

With CCOc1nc(NCc2ccc(F)cc2)nc2ncc(-c3ccc(F)cc3)nc12 [Example C] the CC50 at 3 days ([1]; Table 4) was > 20 µM and the EC50 (HCV replicon; Hepatitis C virus, Huh-7, 72 h) was < 0.3 µM.

With NS(=O)(=O)c1ccc(CNc2nc(NCC(F)(F)F)c3nc(-c4ccc(F)cc4)cnc3n2)cc1 [Example D, 4-{[6-(4-fluoro-phenyl)-4-(2,2,2-trifluoro-ethylamino)-pteridin-2-ylamino]-methyl}-benzenesulfonamide] the CC50 at 3 days ([1]; Table 4) was > 20 µM and the EC50 (HCV replicon; Hepatitis C virus, Huh-7, 72 h) was < 0.3 µM.

With Fc1ccc(CNc2nc(NCC(F)(F)F)c3nc(-c4ccc(F)cc4)cnc3n2)cc1 [Example E, N2-(4-Fluoro-benzyl)-6-(4-fluoro-phenyl)-N4-(2,2,2-trifluoro-ethyl)-pteridine-2,4-diamine] the CC50 at 3 days ([1]; Table 4) was < 10 µM and the EC50 (HCV replicon; [5]) was < 0.3 µM.

In the case of CC(Nc1nc(NCC(F)(F)F)c2nc(-c3ccc(F)cc3)cnc2n1)c1ccc(S(N)(=O)=O)cc1 (stereo not shown) [Example F, 4-{1-[6-(4-Fluoro-phenyl)-4-(2,2,2-trifluoro-ethylamino)-pteridin-2-ylamino]-ethyl}-benzenesulfonamide], the CC50 at 3 days ([1]; Table 4) is reported as < 10 µM and the EC50 (HCV replicon; [5]) is reported as < 0.3 µM.

In the case of CCOc1nc(NCc2ccc(S(N)(=O)=O)cc2)nc2ncc(-c3ccc(F)cc3)nc12 [Example G, 4-{[4-Ethoxy-6-(4-fluoro-phenyl)-pteridin-2-ylamino]-methyl}-benzenesulfonamide], the CC50 at 3 days ([1]; Table 4) is reported as > 20 µM and the EC50 (HCV replicon; [5]) is reported as < 0.3 µM.

For NS(=O)(=O)c1ccc(CNc2nc(NCC(F)(F)F)c3nc(-c4ccc(C(=O)NC5CC5)cc4)cnc3n2)cc1 [Example H, N-Cyclopropyl-4-[2-(4-sulfamoyl-benzylamino)-4-(2,2,2-trifluoro-ethylamino)-pteridin-6-yl]-benzamide], the CC50 at 3 days ([1]; Table 4) was > 20 µM and the EC50 (HCV replicon; Hepatitis C virus, Huh-7, 72 h) was 0.3 to 1 µM.

Molecule NS(=O)(=O)c1ccc(CNc2nc(NCC(F)(F)F)c3nc(-c4ccc(F)c(Cl)c4)cnc3n2)cc1 [Example I, 4-{[6-(3-Chloro-4-fluoro-phenyl)-4-(2,2,2-trifluoro-ethylamino)-pteridin-2-ylamino]-methyl}-benzenesulfonamide] has a CC50 at 3 days ([1]; Table 4) of 10 to 20 µM and an EC50 (HCV replicon; Hepatitis C virus, Huh-7, 72 h) of 0.3 to 1 µM.
